A value given as a limit tells only on which side of the number the result lay.

This assay deals with HBV. Kind of assay: Anti-HBV activity in vitro: quantification of extracellular HBV DNA by direct qPCR in HepAD38 cells. Type of assay: cell-based. To be noted: Hepatitis B virus, doxycycline-free medium, 96 hours at 37°C, 8-point dose-response curve, read-out: HBV inh EC50. The text has this: HepAD38 cell line (Ladner et al., Antimicrob Agents Chemother, 1997, 41, 1715-20) was used for HBV inhibition assays. HepAD38 is a subclone, derived from hepatoblastoma cell line HepG2 (ATCC® Number: HB-8065™), that expresses HBV genome under the transcriptional control of a tetracycline-responsive promoter in a TET-OFF system: addition of doxycycline, an antibiotic belonging to the class of tetracycline, suppresses HBV replication, while its removal switches on the process allowing HBV viral particles release in the cell supernatant. HepAD38 cell line is maintained in DMEM/F12, supplemented with 10% of fetal bovine serum, 1% of glutamine, 1% of penicillin/streptomycin, 0.4 mg/ml G418 and 0,3 ug/ml tetracycline. For the HBV inhibition assay, doxycycline-free medium is used in order to allow virion production.
HBV inhibition activity in vitro was performed in 96 multiwell plates. During the initial (primary) screening, compounds were first tested in triplicates at concentrations of 0.02 µM, 0.1µM, 0.5µM and 1µM. For selected compounds, an 8-point dose-response curve was obtained using 1:2 serial dilutions (starting from 0.01µM, 0.1µM, 0.4µM or 5 µM, depending on the degree of inhibition observed during the primary screening). From the dose-response curves, half maximal effective concentration (EC50) could be calculated (see also below).
In more detail, compounds - typically dissolved in DMSO stock solutions - were diluted to 2x the final desired concentration in 100 µl of the above medium (without doxycycline) and plated in three replicates in the 96-well plates.
Simultaneously, HepAD38 cells - extensively pre-washed in doxycycline-free medium in order to induce HBV production - were suspended at 2^∗10^4 cells in 100 µl of doxycycline-free medium and added to each well of the plate, to yield a final assay volume of 200 µl DMSO - used for stock solutions and compounds dilutions - which was always present in the assays at a final concentration of 0.5%.
Plates were then incubated 96 hours at 37°C and then subjected to cell viability assays and extracellular HBV quantification, in order to evaluate both the cytotoxic potential and the antiviral activity of compounds. Cytotoxicity was assessed by a commercial fluorescence assay that measures the metabolic activity of cells, directly related to cell viability (Cell Titer Blue, Promega). Anti-HBV activity was evaluated by quantification of extracellular HBV DNA with direct qPCR. In particular, supernatant was collected and centrifuged for cell debris clarification, viral DNA was extracted from virions by addition of lysis buffer (1 mM 1,4-dithiothreitol, 0.2% sodium dodecyl sulphate) and incubated at 95°C for 10 min. Samples were then diluted 1:40 and real time PCR amplification was performed with SYBR green assay (Power SYBR™ Green PCR Master Mix-Thermo Fisher Scientific) and specific HBV primer (HBV-DF:5'-[…]-3' (SEQ ID No. 1), HBV-DR:5'-[…]-3' (SEQ ID No. 2)).
Antiviral activity data for each compound are reported as EC50 value (see Table 1 legend). Excel and Graphpad Prism programs are typically used for data elaboration and EC50 calculation.
On the technique in general: Quantitative PCR measures a nucleic acid by following its amplification.
Turning to `C[C@H](NC(=O)C(=O)N1CCC2(CC1)COc1c(cn(C)c1C(=O)Nc1ccc(F)c(C(F)F)c1)S(=O)(=O)N2)C(F)(F)F` [Example E14, (S)-N-(3-(difluoromethyl)-4-fluorophenyl)-7'-methyl-1-(2-oxo-2-((1,1,1-trifluoropropan-2-yl)amino)acetyl)-2'H,4'H,7'H-spiro[piperidine-4,3'-pyrrolo[3,4-b][1,4,5]oxathiazepine]-6'-carboxamide 1',1'-dioxide], the EC50 is below 500 nM.

In the case of `C[C@@H](NC(=O)C(=O)N1CC[C@@]2(COc3c(c(Cl)n(C)c3C(=O)Nc3ccc(F)c(C(F)F)c3)S(=O)(=O)N2)C1)C(F)(F)F` [Example E29, (S)-8'-chloro-N-(3-(difluoromethyl)-4-fluorophenyl)-7'-methyl-1-(2-oxo-2-(((R)-1,1,1-trifluoropropan-2-yl)amino)acetyl)-2'H,4'H,7'H-spiro[pyrrolidine-3,3'-pyrrolo[3,4-b][1,4,5]oxathiazepine]-6'-carboxamide 1',1'-dioxide], the EC50 was below 500 nM. As for `C[C@H](NC(=O)C(=O)N1CCC2(CC1)COc1c(cn(C)c1C(=O)Nc1ccc(F)c(Cl)c1)S(=O)(=O)N2)C(F)(F)F` [Example E12, (S)-N-(3-chloro-4-fluorophenyl)-7'-methyl-1-(2-oxo-2-((1,1,1-trifluoropropan-2-yl)amino)acetyl)-2'H,4'H,7'H-spiro[piperidine-4,3'-pyrrolo[3,4-b][1,4,5]oxathiazepine]-6'-carboxamide 1',1'-dioxide], the figure is below 500 nM. In the case of `C[C@@H](NC(=O)C(=O)N1CC2(COc3c(c(Cl)n(C)c3C(=O)Nc3ccc(F)c(Cl)c3)S(=O)(=O)N2)C1)C(F)(F)F` [Example E31, (R)-8'-chloro-N-(3-chloro-4-fluorophenyl)-7'-methyl-1-(2-oxo-2-((1,1,1-trifluoropropan-2-yl)amino)acetyl)-2'H,4'H,7'H-spiro[azetidine-3,3'-pyrrolo[3,4-b][1,4,5]oxathiazepine]-6'-carboxamide 1',1'-dioxide], the EC50 is below 500 nM. As to `C[C@@H](NC(=O)C(=O)N1CCC2(CC1)COc1c(cn(C)c1C(=O)Nc1ccc(F)c(Cl)c1)S(=O)(=O)N2)C(F)(F)F` [Example E7, (R)-N-(3-chloro-4-fluorophenyl)-7'-methyl-1-(2-oxo-2-((1,1,1-trifluoropropan-2-yl)amino)acetyl)-2'H,4'H,7'H-spiro[piperidine-4,3'-pyrrolo[3,4-b][1,4,5]oxathiazepine]-6'-carboxamide 1',1'-dioxide], the EC50 was below 500 nM. As for `Cn1cc2c(c1C(=O)Nc1ccc(F)c(Cl)c1)OC[C@@]1(CCN(C(=O)C(=O)NC(C)(C)C(F)(F)F)C1)NS2(=O)=O` [Example E26, (S)-N-(3-chloro-4-fluorophenyl)-7'-methyl-1-(2-oxo-2-((1,1,1-trifluoro-2-methylpropan-2-yl)amino)acetyl)-2'H,4'H,7'H-spiro[pyrrolidine-3,3'-pyrrolo[3,4-b][1,4,5]oxathiazepine]-6'-carboxamide 1',1'-dioxide], the figure is below 500 nM; as for `Cn1cc2c(c1C(=O)Nc1ccc(F)c(Cl)c1)OCC1(CN(C(=O)C(=O)N3CC(F)(F)C3)C1)NS2(=O)=O` [Example E17, N-(3-chloro-4-fluorophenyl)-1-(2-(3,3-difluoroazetidin-1-yl)-2-oxoacetyl)-7'-methyl-2'H,4'H,7'H-spiro[azetidine-3,3'-pyrrolo[3,4-b][1,4,5]oxathiazepine]-6'-carboxamide 1',1'-dioxide], below 500 nM. Regarding `C[C@@H](NC(=O)C(=O)N1CC[C@]2(COc3c(cn(C)c3C(=O)Nc3ccc(F)c(C(F)F)c3)S(=O)(=O)N2)C1)C(F)(F)F` [Example E6, (R)-N-(3-(difluoromethyl)-4-fluorophenyl)-7'-methyl-1-(2-oxo-2-(((R)-1,1,1-trifluoropropan-2-yl)amino)acetyl)-2'H,4'H,7'H-spiro[pyrrolidine-3,3'-pyrrolo[3,4-b][1,4,5]oxathiazepine]-6'-carboxamide 1',1'-dioxide], the EC50 is below 500 nM. As for `C[C@@H](NC(=O)C(=O)N1CC[C@]2(COc3c(c(Cl)n(C)c3C(=O)Nc3ccc(F)c(C(F)F)c3)S(=O)(=O)N2)C1)C(F)(F)F` [Example E34, (R)-8'-chloro-N-(3-(difluoromethyl)-4-fluorophenyl)-7'-methyl-1-(2-oxo-2-(((R)-1,1,1-trifluoropropan-2-yl)amino)acetyl)-2'H,4'H,7'H-spiro[pyrrolidine-3,3'-pyrrolo[3,4-b][1,4,5]oxathiazepine]-6'-carboxamide 1',1'-dioxide], the figure is below 500 nM; as for `C[C@@H](NC(=O)C(=O)N1CC2(COc3c(cn(C)c3C(=O)Nc3ccc(F)c(Cl)c3)S(=O)(=O)N2)C1)C(F)(F)F` [Example E9, (R)-N-(3-chloro-4-fluorophenyl)-7'-methyl-1-(2-oxo-2-((1,1,1-trifluoropropan-2-yl)amino)acetyl)-2'H,4'H,7'H-spiro[azetidine-3,3'-pyrrolo[3,4-b][1,4,5]oxathiazepine]-6'-carboxamide 1',1'-dioxide], below 500 nM; as for `C[C@@H](NC(=O)C(=O)N1CC[C@]2(COc3c(c(Cl)n(C)c3C(=O)Nc3ccc(F)c(Cl)c3)S(=O)(=O)N2)C1)C(F)(F)F` (stereo in doubt) [Example E33, (R)-8'-chloro-N-(3-chloro-4-fluorophenyl)-7'-methyl-1-(2-oxo-2-(((R)-1,1,1-trifluoropropan-2-yl)amino)acetyl)-2'H,4'H,7'H-spiro[pyrrolidine-3,3'-pyrrolo[3,4-b][1,4,5]oxathiazepine]-6'-carboxamide 1',1'-dioxide], below 500 nM. For the compound `C[C@@H](NC(=O)C(=O)N1CCC2(CC1)COc1c(c(Cl)n(C)c1C(=O)Nc1ccc(F)c(Cl)c1)S(=O)(=O)N2)C(F)(F)F` [Example E30, (R)-8'-chloro-N-(3-chloro-4-fluorophenyl)-7'-methyl-1-(2-oxo-2-((1,1,1-trifluoropropan-2-yl)amino)acetyl)-2'H,4'H,7'H-spiro[piperidine-4,3'-pyrrolo[3,4-b][1,4,5]oxathiazepine]-6'-carboxamide 1',1'-dioxide], the EC50 is below 500 nM. As for `C[C@@H](NC(=O)C(=O)N1CC2(COc3c(c(Cl)n(C)c3C(=O)Nc3ccc(F)c(C(F)F)c3)S(=O)(=O)N2)C1)C(F)(F)F` [Example E32, (R)-8'-chloro-N-(3-(difluoromethyl)-4-fluorophenyl)-7'-methyl-1-(2-oxo-2-((1,1,1-trifluoropropan-2-yl)amino)acetyl)-2'H,4'H,7'H-spiro[azetidine-3,3'-pyrrolo[3,4-b][1,4,5]oxathiazepine]-6'-carboxamide 1',1'-dioxide], the figure is below 500 nM; as for `Cn1cc2c(c1C(=O)Nc1ccc(F)c(C(F)F)c1)OCC1(CN(C(=O)C(=O)NC3CC3)C1)NS2(=O)=O` [Example E19, 1-(2-(cyclopropylamino)-2-oxoacetyl)-N-(3-(difluoromethyl)-4-fluorophenyl)-7'-methyl-2'H,4'H,7'H-spiro[azetidine-3,3'-pyrrolo[3,4-b][1,4,5]oxathiazepine]-6'-carboxamide 1',1'-dioxide], below 500 nM.

In the case of `C[C@@H](NC(=O)C(=O)N1CC[C@@]2(COc3c(cn(C)c3C(=O)Nc3ccc(F)c(C(F)F)c3)S(=O)(=O)N2)C1)C(F)(F)F` [Example E11, (S)-N-(3-(difluoromethyl)-4-fluorophenyl)-7'-methyl-1-(2-oxo-2-(((R)-1,1,1-trifluoropropan-2-yl)amino)acetyl)-2'H,4'H,7'H-spiro[pyrrolidine-3,3'-pyrrolo[3,4-b][1,4,5]oxathiazepine]-6'-carboxamide 1',1'-dioxide], the EC50 is below 500 nM. The same measure for `C[C@H](NC(=O)C(=O)N1CC2(COc3c(cn(C)c3C(=O)Nc3ccc(F)c(C(F)F)c3)S(=O)(=O)N2)C1)C(F)(F)F` [Example E18, (S)-N-(3-(difluoromethyl)-4-fluorophenyl)-7'-methyl-1-(2-oxo-2-((1,1,1-trifluoropropan-2-yl)amino)acetyl)-2'H,4'H,7'H-spiro[azetidine-3,3'-pyrrolo[3,4-b][1,4,5]oxathiazepine]-6'-carboxamide 1',1'-dioxide]: below 500 nM.

What is called EC50 is the concentration giving half of the maximal effect.

The record behind these values is patent EP3985010A1, “SPIROCYCLIC INHIBITORS OF HEPATITIS B VIRUS” (priority 2020, dated 2022).
